ChEMBL document CHEMBL5543151, “Rational Design of a Novel Class of Human ClpP Agonists through a Ring-Opening Strategy with Enhanced Antileukemia Activity” (J Med Chem, 2024)
pEC50, pIC50: −log10 of the molar value.

Tests used:
MV4-11 [1] = experiment: Induction of apoptosis in human MV4-11 cells assessed as increase in apoptotic (annexin V-positive) cell proportions by measuring apoptotic rate at 120 nM measured after 48 hrs by Annexin V-647/P1 apoptosis detection assay relative to control; assay type: functional
MV4-11 [2] = experiment: Anti-leukemia activity against human MV4-11 cells assessed as decrease in cell proliferation incubated for 72 hrs by CCK-8 assay; assay type: functional, cell-based; details: MV4-11, 72 h
MV4-11 [3] = experiment: Anti-leukemia activity against human MV4-11 cells assessed as decrease in cell proliferation incubated for 24 hrs by CCK-8 assay; assay type: functional, cell-based; details: MV4-11, 24 h
K562 = experiment: Anti-leukemia activity against human K562 cells assessed as decrease in cell proliferation incubated for 72 hrs by CCK-8 assay; assay type: functional, cell-based; details: K562, 72 h
Kasumi 1 = experiment: Anti-leukemia activity against human Kasumi 1 cells assessed as decrease in cell proliferation incubated for 72 hrs by CCK-8 assay; assay type: functional, cell-based; details: Kasumi 1, 72 h
[4] = biological target: T1, ATP-dependent Clp protease proteolytic subunit, mitochondrial (Homo sapiens, UniProt Q16740); experiment: Binding affinity to human Casein lysing protease P (HsClpP) assessed as change in melting temperature measured after 2 hrs differential scanning fluorimetry (DSF) assay
T1 sequence (Q16740 whole entry): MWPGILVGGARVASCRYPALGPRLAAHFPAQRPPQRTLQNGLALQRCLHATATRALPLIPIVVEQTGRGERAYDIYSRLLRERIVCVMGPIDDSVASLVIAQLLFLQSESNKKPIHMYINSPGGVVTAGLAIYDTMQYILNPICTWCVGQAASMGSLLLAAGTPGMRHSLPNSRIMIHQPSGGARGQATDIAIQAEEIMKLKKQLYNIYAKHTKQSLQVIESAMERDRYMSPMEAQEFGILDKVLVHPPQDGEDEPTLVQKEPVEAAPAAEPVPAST

[5] = biological target: T1, ATP-dependent Clp protease proteolytic subunit, mitochondrial; experiment: Agonist activity at human Casein lysing protease P (HsClpP) assessed as proteolytic activity by measuring alpha-casein hydrolysis measured after 2 hrs incubation by fluorescence assay
MV4-11 [6] = experiment: Anti-leukemia activity against human MV4-11 cells assessed as decrease in cell proliferation incubated for 48 hrs by CCK-8 assay; assay type: functional, cell-based; details: MV4-11, 48 h
THP-1 = experiment: Anti-leukemia activity against human THP-1 cells assessed as decrease in cell proliferation incubated for 72 hrs by CCK-8 assay; assay type: functional, cell-based; details: THP-1, 72 h
OCI-AML2 = experiment: Anti-leukemia activity against human OCI-AML2 cells assessed as decrease in cell proliferation incubated for 72 hrs by CCK-8 assay; assay type: functional, cell-based; details: OCI-AML2, 72 h
HL-60 = experiment: Anti-leukemia activity against human HL-60 cells assessed as decrease in cell proliferation incubated for 72 hrs by CCK-8 assay; assay type: functional, cell-based; details: HL-60, 72 h
U-937 = experiment: Anti-leukemia activity against human U-937 cells assessed as decrease in cell proliferation incubated for 72 hrs by CCK-8 assay; assay type: functional, cell-based; details: U-937, 72 h
MOLM-13 = experiment: Anti-leukemia activity against human MOLM-13 cells assessed as decrease in cell proliferation incubated for 72 hrs by CCK-8 assay; assay type: functional, cell-based; details: MOLM-13, 72 h
MV4-11 [7] = experiment: Potency index, ratio of ONC201 IC50 to test compound IC50 for anti-leukemia activity against human MV4-11 cells assessed as decrease in cell proliferation incubated for 72 hrs by CCK-8 assay; assay type: functional
[8] = Acute toxicity in BALB/c mouse assessed as ASTL biochemical parameter at 25 to 100 mg/kg, ip measured for 2 weeks; assay type: organism-based; details: in vivo, 336 h, dose 25-100 mg/kg
[9] = AUC(0 to 12hrs) in Sprague-Dawley rat at 5 mg/kg, iv measured upto 12 hrs by LC-MS analysis; assay type: ADME, organism-based; details: in vivo
MV4-11 [10] = experiment: In vivo anti-leukemia activity against human MV4-11 cells transplanted in BALB/c nude mouse assessed as reduction in tumor weight at 2.5 mg/kg, ip twice weekly treatment started 7 th day of cell inoculum till 18 th day; assay type: functional; parameters: scale not given: the % may be the effect or the level left; details: time 11 day
[11] = Half life in Sprague-Dawley rat at 5 mg/kg, iv measured upto 12 hrs by LC-MS analysis; assay type: ADME, organism-based; details: in vivo
[12] = Half life in Sprague-Dawley rat at 15 mg/kg, po measured upto 12 hrs by LC-MS analysis; assay type: ADME, organism-based; details: in vivo
[13] = Toxicity in BALB/c nude mouse transplanted with human MV4-11 cells assessed as pathological damage in liver at 2.5 to 10 mg/kg, ip measured for 17 days by hematoxylin and eosin staining based assay; assay type: organism-based; details: in vivo, 408 h, dose 2.5-10 mg/kg, time 17 day
MV4-11 [14] = experiment: In vivo anti-leukemia activity against human MV4-11 cells transplanted in BALB/c nude mouse assessed as reduction in tumor weight at 5 mg/kg, ip twice weekly treatment started 7 th day of cell inoculum till 18 th day; assay type: functional; parameters: scale not given: the % may be the effect or the level left; details: time 11 day
[15] = Acute toxicity in BALB/c mouse assessed as ALB2 biochemical parameter at 25 to 100 mg/kg, ip measured for 2 weeks; assay type: organism-based; details: in vivo, 336 h, dose 25-100 mg/kg
[16] = Bioavailability in Sprague-Dawley rat at 5 mg/kg, iv measured upto 12 hrs by LC-MS analysis; assay type: ADME, organism-based; details: in vivo
MV4-11 [17] = experiment: In vivo anti-leukemia activity against human MV4-11 cells transplanted in BALB/c nude mouse assessed as reduction in tumor volume at 2.5 mg/kg, ip twice weekly treatment started 7 th day of cell inoculum till 18 th day; assay type: functional; parameters: scale not given: the % may be the effect or the level left; details: time 11 day
[18] = Acute toxicity in BALB/c mouse assessed as CREJ2 biochemical parameter at 25 to 100 mg/kg, ip measured for 2 weeks; assay type: organism-based; details: in vivo, 336 h, dose 25-100 mg/kg
[19] = Acute toxicity in BALB/c mouse assessed as UREAL biochemical parameter at 25 to 100 mg/kg, ip measured for 2 weeks; assay type: organism-based; details: in vivo, 336 h, dose 25-100 mg/kg
MV4-11 [20] = experiment: In vivo anti-leukemia activity against human MV4-11 cells transplanted in BALB/c nude mouse assessed as reduction in tumor weight at 10 mg/kg, ip twice weekly treatment started 7 th day of cell inoculum till 18 th day; assay type: functional; parameters: scale not given: the % may be the effect or the level left; details: time 11 day
[21] = Acute toxicity in BALB/c mouse assessed as ALP2L biochemical parameter at 25 to 100 mg/kg, ip measured for 2 weeks; assay type: organism-based; details: in vivo, 336 h, dose 25-100 mg/kg
[22] = Acute toxicity in BALB/c mouse assessed as pathological changes in kidney at 25 to 100 mg/kg, ip measured for 2 weeks by hematoxylin and eosin staining based assay; assay type: organism-based; details: in vivo, 336 h, dose 25-100 mg/kg
[23] = AUC(0 to 12hrs) in Sprague-Dawley rat at 15 mg/kg, po measured upto 12 hrs by LC-MS analysis; assay type: ADME, organism-based; details: in vivo
[24] = MRT (0 to 12hrs) in Sprague-Dawley rat at 15 mg/kg, po measured upto 12 hrs by LC-MS analysis; assay type: ADME, organism-based; details: in vivo
MV4-11 [25] = experiment: In vivo anti-leukemia activity against human MV4-11 cells transplanted in BALB/c nude mouse assessed as reduction in tumor volume at 10 mg/kg, ip twice weekly treatment started 7 th day of cell inoculum till 18 th day; assay type: functional; parameters: scale not given: the % may be the effect or the level left; details: time 11 day
[26] = Acute toxicity in BALB/c mouse assessed as pathological changes in heart at 25 to 100 mg/kg, ip measured for 2 weeks by hematoxylin and eosin staining based assay; assay type: organism-based; details: in vivo, 336 h, dose 25-100 mg/kg
[27] = Acute toxicity in BALB/c mouse assessed as pathological changes in lung at 25 to 100 mg/kg, ip measured for 2 weeks by hematoxylin and eosin staining based assay; assay type: organism-based; details: in vivo, 336 h, dose 25-100 mg/kg
[28] = Cmax in Sprague-Dawley rat at 5 mg/kg, iv measured upto 12 hrs by LC-MS analysis; assay type: ADME, organism-based; details: in vivo
[29] = Toxicity in BALB/c nude mouse transplanted with human MV4-11 cells assessed as change in body weight at 2.5 to 10 mg/kg, ip measured for 17 days; assay type: organism-based; details: in vivo, 408 h, dose 2.5-10 mg/kg, time 17 day
[30] = Cmax in Sprague-Dawley rat at 15 mg/kg, po measured upto 12 hrs by LC-MS analysis; assay type: ADME, organism-based; details: in vivo
[31] = Acute toxicity in BALB/c mouse assessed as LDHI2 biochemical parameter at 25 to 100 mg/kg, ip measured for 2 weeks; assay type: organism-based; details: in vivo, 336 h, dose 25-100 mg/kg
[32] = MRT (0 to 12hrs) in Sprague-Dawley rat at 5 mg/kg, iv measured upto 12 hrs by LC-MS analysis; assay type: ADME, organism-based; details: in vivo
[33] = Acute toxicity in BALB/c mouse assessed as adverse effect at 25 to 100 mg/kg, ip measured for 2 weeks; assay type: organism-based; details: in vivo, 336 h, dose 25-100 mg/kg
[34] = Acute toxicity in BALB/c mouse assessed as TRIGL biochemical parameter at 25 to 100 mg/kg, ip measured for 2 weeks; assay type: organism-based; details: in vivo, 336 h, dose 25-100 mg/kg
[35] = Toxicity in BALB/c nude mouse transplanted with human MV4-11 cells assessed as pathological damage in heart at 2.5 to 10 mg/kg, ip measured for 17 days by hematoxylin and eosin staining based assay; assay type: organism-based; details: in vivo, 408 h, dose 2.5-10 mg/kg, time 17 day
[36] = Acute toxicity in BALB/c mouse assessed as UA2 biochemical parameter at 25 to 100 mg/kg, ip measured for 2 weeks; assay type: organism-based; details: in vivo, 336 h, dose 25-100 mg/kg
[37] = Clearance in Sprague-Dawley rat at 5 mg/kg, iv measured upto 12 hrs by LC-MS analysis; assay type: ADME, organism-based; details: in vivo
[38] = Acute toxicity in BALB/c mouse assessed as vTP2 biochemical parameter at 25 to 100 mg/kg, ip measured for 2 weeks; assay type: organism-based; details: in vivo, 336 h, dose 25-100 mg/kg
[39] = Tmax in Sprague-Dawley rat at 15 mg/kg, po measured upto 12 hrs by LC-MS analysis; assay type: ADME, organism-based; details: in vivo
[40] = Toxicity in BALB/c nude mouse transplanted with human MV4-11 cells assessed as pathological damage in kidney at 2.5 to 10 mg/kg, ip measured for 17 days by hematoxylin and eosin staining based assay; assay type: organism-based; details: in vivo, 408 h, dose 2.5-10 mg/kg, time 17 day
[41] = Acute toxicity in BALB/c mouse assessed as pathological changes in liver at 25 to 100 mg/kg, ip measured for 2 weeks by hematoxylin and eosin staining based assay; assay type: organism-based; details: in vivo, 336 h, dose 25-100 mg/kg
[42] = Acute toxicity in BALB/c mouse assessed as ALTL biochemical parameter at 25 to 100 mg/kg, ip measured for 2 weeks; assay type: organism-based; details: in vivo, 336 h, dose 25-100 mg/kg
[43] = Toxicity in BALB/c nude mouse transplanted with human MV4-11 cells assessed as pathological damage in lung at 2.5 to 10 mg/kg, ip measured for 17 days by hematoxylin and eosin staining based assay; assay type: organism-based; details: in vivo, 408 h, dose 2.5-10 mg/kg, time 17 day
[44] = Toxicity in BALB/c nude mouse transplanted with human MV4-11 cells assessed as pathological damage in spleen at 2.5 to 10 mg/kg, ip measured for 17 days by hematoxylin and eosin staining based assay; assay type: organism-based; details: in vivo, 408 h, dose 2.5-10 mg/kg, time 17 day
MV4-11 [45] = experiment: In vivo anti-leukemia activity against human MV4-11 cells transplanted in BALB/c nude mouse assessed as reduction in tumor volume at 5 mg/kg, ip twice weekly treatment started 7 th day of cell inoculum till 18 th day; assay type: functional; parameters: scale not given: the % may be the effect or the level left; details: time 11 day
[46] = Acute toxicity in BALB/c mouse assessed as pathological changes in spleen at 25 to 100 mg/kg, ip measured for 2 weeks by hematoxylin and eosin staining based assay; assay type: organism-based; details: in vivo, 336 h, dose 25-100 mg/kg

N#Cc1cccc(CN2CCc3[nH]c(NCc4ccc(F)cc4)nc(=O)c3C2)c1
Activity (MV4-11 [1]): ~80%
pIC50 (MV4-11 [2]): 7.52
pEC50 (MV4-11 [3]): 5.28
pIC50 (K562): 6.88
pIC50 (Kasumi 1): 7.39
pEC50 [4]: 5.86
pEC50 [5]: 6.01
pEC50 (MV4-11 [6]): 7.11
pIC50 (THP-1): 7.10
pIC50 (OCI-AML2): 7.41
pIC50 (HL-60): 7.39
pIC50 (U-937): 7.11
pIC50 (MOLM-13): 7.52
Ratio IC50 (MV4-11 [7]): 20

Cl.N#Cc1cccc(CN2CCc3[nH]c(NCc4ccc(F)cc4)nc(=O)c3C2)c1
Activity [8]: Non-Toxic
AUC(0-t) at 12 h [9]: 791 ng·h/mL
Activity (MV4-11 [10]): 20.35%
half-life [11]: 4.9 h
half-life [12]: 3.9 h
Activity [13]: Non-Toxic
Activity (MV4-11 [14]): 67%
Activity [15]: Non-Toxic
bioavailability [16]: 32.7%
Activity (MV4-11 [17]): 20.52%
Activity [18]: Non-Toxic
Activity [19]: Non-Toxic
Activity (MV4-11 [20]): 88.88%
Activity [21]: Non-Toxic
Activity [22]: Non-Toxic
AUC(0-t) at 12 h [23]: 780 ng·h/mL
MRT last at 12 h [24]: 2.4 h
Activity (MV4-11 [25]): 88.29%
Activity [26]: Non-Toxic
Activity [27]: Non-Toxic
Cmax [28]: 869 ng/mL
Activity [29]: Non-Toxic
Cmax [30]: 332 ng/mL
Activity [31]: Non-Toxic
MRT last at 12 h [32]: 2.8 h
Activity [33]: Non-Toxic
Activity [34]: Non-Toxic
Activity [35]: Non-Toxic
Activity [36]: Non-Toxic
clearance [37]: 58.3 mL/min/kg
Activity [38]: Non-Toxic
Tmax [39]: 1 h
Activity [40]: Non-Toxic
Activity [41]: Non-Toxic
Activity [42]: Non-Toxic
Activity [43]: Non-Toxic
Activity [44]: Non-Toxic
Activity (MV4-11 [45]): 75.3%
Activity [46]: Non-Toxic
